Measured values as given in US20210052633A1, “HYALURONIC ACID SYNTHESIS PROMOTER, METHOD FOR PROMOTING HYALURONIC ACID SYNTHESIS, AND CELL EVALUATION METHOD” (SEIKAGAKU CORPORATION, priority 2018, published 2021).

Columns and labels:
[1] = tested on: human synovial cells derived from three patients with osteoarthritis (HFLS-OA); assay: Hyaluronic acid synthesis by synovial cells ([3H] glucosamine incorporation, HPLC fractionation by molecular weight); assay type: cell-based; conditions: 48 hours, SB-807 HQ column
[2] = tested on: synovial cells derived from patients with osteoarthritis (HFLS-OA)
Experimental: The cells derived from three patients with each disease (3 lots) were separately evaluated and the number of cases was set to 3.
After the culture supernatant was collected, the adhered cells were detached from each well. Thereafter, the cell count was measured using a trypan blue solution and a hemacytometer.

In the case of “Aminoethanol-diclofenac-introduced sodium hyaluronate [compound 1]”, the “molecular weight peak of hyaluronic acid produced” value ([1]; Example 5, 0.01% (w/v)) is reported as ~2,400,000, the “molecular weight of hyaluronic acid produced” value ([1]; Example 5, 0.1% (w/v)) is reported as “more than 2,400,000” and the “cell count after cell culture” value [2] is reported as “no significant increase or decrease”.
